Source: patent publication US20260250318A1, “COMPOSITIONS AND METHODS FOR CROSSING THE BLOOD BRAIN BARRIER” (VOYAGER THERAPEUTICS, INC., priority 2022, published 2026)

Experiments:
Details in all cases: synthetic library passage 3, intravenous, relative to wild-type AAV9
[1] = test system: brain, spinal cord, and DRG of the NHPs; test: NGS fold enrichment of synthetic library (passage 3) in NHPs, first cross-species screen; assay type: in vivo, cynomolgus macaques (Macaca fascicularis)
In short: (§1)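 Fold enrichment versus wild-type AAV9 was derived by NGS of RT-PCR-amplified RNA from nervous tissue, collected e.g. 28 days after IV dosing […]. The library (passage 3) was given to two NHPs aged 2-4 years and to 6-8-week BALB/c and C57Bl/6 mice (n=3 each).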

brain [2] = test: NGS fold enrichment of synthetic library (passage 3) in C57Bl/6 mice, first cross-species screen; assay type: in vivo
In short: as §1

brain [3] = test: NGS fold enrichment of synthetic library (passage 3) in BALB/c mice, first cross-species screen; assay type: in vivo
In short: as §1

[4] = RNA from spinal cord of NHPs, NGS
[5] = RNA from brain of C57Bl/6 mice, NGS
[6] = RNA from brain of BALB/c mice, NGS

Row | Sequence | Fold enrichment over AAV9 in the brain of NHPs ([1]; RNA NGS, brain of NHPs) | Fold enrichment over AAV9 in the spinal cord of NHPs ([1]; RNA NGS, spinal cord of NHPs) | Fold enrichment over AAV9 in the brain of Mice (C57Bl/6) (brain [2]; RNA NGS, brain of C57Bl/6 mice) | Fold enrichment over AAV9 in the brain of Mice (BALB/c) (brain [3]; RNA NGS, brain of BALB/c mice) | Fold enrichment over AAV9 in the brain of NHPs ([1]; RNA from brain of NHPs, NGS) | Fold enrichment over AAV9 in the spinal cord of NHPs [1, 4] | Fold enrichment over AAV9 in the brain of Mice (C57Bl/6) (brain [2]; [5]) | Fold enrichment over AAV9 in the brain of Mice (BALB/c) (brain [3]; [6])
1 | GSGHGQVLSQNQQT | 2.213 fold | 12.133 fold | 1.880 fold | 0.661 fold |  |  |  | 
2 | GSGHIYVGIQNQQT | 2.178 fold | 6.428 fold | 0.989 fold | 0.337 fold |  |  |  | 
3 | GSGHLFQSGQNQQT | 1.057 fold | 0.615 fold | 0.751 fold | 0.386 fold |  |  |  | 
4 | GSGHLPQSAQNQQT | 2.803 fold | 7.828 fold | 0.826 fold | 0.496 fold |  |  |  | 
5 | GSGHMSDLRQNQQT | 1.073 fold | 4.291 fold | 0.555 fold | 0.328 fold |  |  |  | 
6 | GSGHMTYREKNQQT | 2.633 fold | 5.267 fold | 1.257 fold | 0.540 fold |  |  |  | 
7 | GSGHNQQVRTAPNT | 1.885 fold | 1.022 fold | 1.006 fold | 0.580 fold |  |  |  | 
8 | GSGHPYKAAQNQQT |  |  |  |  | 1.246 fold | 0.000 fold | 0.872 fold | 0.507 fold
9 | GSGHSIRTDQNQQT | 3.074 fold | 15.600 fold | 0.229 fold | 0.148 fold |  |  |  | 
10 | GSGHSPLPQQNQQT | 1.562 fold | 0.556 fold | 0.387 fold | 0.247 fold |  |  |  | 
11 | GSGHSSHSVQNQQT | 3.339 fold | 3.318 fold | 0.942 fold | 0.424 fold |  |  |  | 
12 | GSGHSVSGPQNQQT | 1.993 fold | 6.259 fold | 1.370 fold | 0.619 fold |  |  |  | 
13 | GSGHTNPTRQNQQT | 1.021 fold | 0.688 fold | 0.726 fold | 0.807 fold |  |  |  | 
14 | GSGHVPNSGLNQQT | 2.091 fold | 0.653 fold | 1.636 fold | 1.154 fold |  |  |  | 
15 | GSGIAAQRTQNQQT | 1.665 fold | 2.691 fold | 1.062 fold | 0.754 fold |  |  |  | 
16 | GSGIGSHIPQNQQT |  |  |  |  | 1.319 fold | 0.173 fold | 0.822 fold | 0.597 fold
17 | GSGIIPVSSQNQQT | 6.352 fold | 0.000 fold | 0.642 fold | 0.253 fold |  |  |  | 
18 | GSGIPAPRLQNQQT |  |  |  |  | 1.273 fold | 4.162 fold | 0.583 fold | 0.396 fold
19 | GSGIPQRSGKNQQT | 3.331 fold | 0.000 fold | 1.418 fold | 1.685 fold |  |  |  | 
20 | GSGIPSVKFQNQQT |  |  |  |  | 1.281 fold | 0.061 fold | 0.364 fold | 0.561 fold
